Results from paper PMC6644236, “Cytotoxicity of Crude Extract and Isolated Constituents of the Dichrostachys cinerea Bark towards Multifactorial Drug-Resistant Cancer Cells” (Evidence-based Complementary and Alternative Medicine : eCAM, 2019).
Like-named read-outs stand apart in the source and are kept apart here.

Experiments:
CCRF-CEM cells [1] = assay: Mitochondrial membrane potential (MMP), JC-1 staining; format: cell-based; settings: 24 h
Procedure: The mitochondrial membrane potential (MMP) of CCRF-CEM cells was analyzed after 24 h treatment with DCB, compound 1, or valinomycin (mitochondrial gradient dissipation substance or positive control). The 5,5′,6,6′-tetrachloro-1,1′,3,3′-tetraethylbenzimidazolyl carbocyanine iodide (JC-1; Biomol, Hamburg, Germany) staining was used to measure the MMP similarly as previously reported.

[2] = test system: HCT116 p53+/+ colon cancer cells; assay: Resazurin reduction cytotoxicity assay; format: cell-based; settings: Homo sapiens
[3] = test system: MDA-MB-231-BCRP clone 23 cells; assay: Resazurin reduction cytotoxicity assay; settings: for Degree of resistance: IC50 in MDA-MB-231-BCRP divided by IC50 in MDA-MB-231-pcDNA; for IC50: MDA-MB-231/BCRP, 72 h
Source text: (§2) Drug-sensitive and drug-resistant cancer cell lines of previously reported origin were used in this study. These included drug-sensitive CCRF-CEM leukemia cells and its multidrug-resistant P-glycoprotein-overexpressing subline CEM/ADR5000 cells [14–16], MDA-MB-231-pcDNA breast cancer cells and their resistant subline MDA-MB-231-BCRP clone 23 cells [17], HCT116 p53^+/+colon cancer cells and their knockout clone HCT116 p53^−/− cells, and U87.MG glioblastoma cells and their resistant subline U87.MGΔEGFR cells [18, 19]. Normal AML12 hepatocytes were used and compared with HepG2 hepatocarcinoma cells [18, 19].
(§3) The Infinite M2000 Pro™ plate reader (Tecan, Crailsheim, Germany) with excitation wavelength of 544 nm and an emission wavelength of 590 nm was used to read the fluorescence after 72 h incubation. IC50 values earlier defined [13] were calculated from a calibration curve by linear regression using Microsoft Excel [24]. The degree of resistance (D.R.) was determined as the IC50 value of the resistant cell line versus that of its sensitive congeners; meanwhile, the selectivity index (S.I.) was the IC50 value in normal AML12 hepatocytes versus that in HepG2 hepatocarcinoma.

U87.MGΔEGFR cells = assay: Resazurin reduction cytotoxicity assay; format: cell-based; settings: for Degree of resistance: IC50 in U87MG.ΔEGFR divided by IC50 in U87MG; for IC50: U87MG.ΔEGFR, 72 h incubation
Source text: as §2, §3

Normal AML12 hepatocytes = assay: Resazurin reduction cytotoxicity assay; format: cell-based; settings: for IC50: Mus musculus, normal AML12 hepatocytes, 72 h incubation
Source text: as §2, §3

[4] = test system: HepG2 hepatocarcinoma cells; assay: Resazurin reduction cytotoxicity assay; format: cell-based; settings: Homo sapiens; HepG2, 72 h incubation
Procedure: as §3

[5] = test system: U87.MG glioblastoma cells; assay: Resazurin reduction cytotoxicity assay; format: cell-based; settings: Homo sapiens, U-87 MG; U87MG, 72 h incubation
[6] = test system: CEM/ADR5000 cells (multidrug-resistant P-glycoprotein-overexpressing subline); assay: Resazurin reduction cytotoxicity assay; format: cell-based; settings: for IC50: CEM/ADR5000, 72 h incubation; for Degree of resistance: IC50 in CEM/ADR5000 divided by IC50 in CCRF-CEM
Source text: as §2, §3

CCRF-CEM leukemia cells = assay: Resazurin reduction cytotoxicity assay; format: cell-based; settings: 72 h incubation
Procedure: as §3

[7] = test system: MDA-MB-231-pcDNA breast cancer cells; assay: Resazurin reduction cytotoxicity assay; format: cell-based; settings: 72 h incubation
HCT116 p53-/- cells = assay: Resazurin reduction cytotoxicity assay; format: cell-based; settings: for IC50: Homo sapiens, HCT-116, HCT116(p53-/-), 72 h incubation; for Degree of resistance: IC50 in HCT116 (p53-/-) divided by IC50 in HCT116 (p53+/+)
Source text: as §2, §3

[8] = test system: 9 tested cancer cell lines; assay: Resazurin reduction cytotoxicity assay, whole panel; format: cell-based; settings: for IC50: all tested cancer cell lines, 72 h incubation, read-out: IC50 values over the tested cancer cell lines
Source text: These included drug-sensitive CCRF-CEM leukemia cells and its multidrug-resistant P-glycoprotein-overexpressing subline CEM/ADR5000 cells [14–16], MDA-MB-231-pcDNA breast cancer cells and their resistant subline MDA-MB-231-BCRP clone 23 cells [17], HCT116 p53^+/+colon cancer cells and their knockout clone HCT116 p53^−/− cells, and U87.MG glioblastoma cells and their resistant subline U87.MGΔEGFR cells [18, 19]. Normal AML12 hepatocytes were used and compared with HepG2 hepatocarcinoma cells [18, 19].
as §3

CCRF-CEM cells [9] = assay: Cell cycle analysis by flow cytometry (PI); format: cell-based; settings: 24 h
Procedure: Aliquots of 1×10^6 CCRF-CEM cells were treated with the studied samples (DCB and compound 1), the reference drug (doxorubicin), or the solvent control (DMSO) at various concentrations. […] The BD Accuri C6 Flow Cytometer (BD Biosciences, Heidelberg, Germany) was used to measure the propidium iodide (PI) fluorescence of individual nuclei. Assays were repeated at least three times and in triplicate.

[10] = test system: normal PBL peripheral blood lymphoblast; design: method as in PMID 11734332; settings: ref [36]; cited from earlier work
CCRF-CEM cells [11] = assay: ROS production, H2DCFH-DA; format: cell-based; settings: 24 h, 2 × IC50 (11.38 μg/mL crude extract; 17.60 μM compound 1)
Procedure: The measurement of ROS production using 2′,7′-dichlorodihydrofluorescein diacetate (H2DCFH-DA) (Sigma-Aldrich) was done in CCRF-CEM cells were treated with DCB, compound 1, a solvent control (DMSO), or a positive control, hydrogen peroxide (H2O2) for 24 h, in similar experimental conditions as documented earlier.

caspases 3/7 = assay: Caspase-Glo 3/7 assay; format: cell-based; settings: CCRF-CEM, 6 h, optimal effects at 8.8 μM
Procedure: (§1) After 6 h treatment of CCRF-CEM cells with DCB and triterpenoid 1 for 6 h, caspases activities were evaluated with Caspase-Glo 3/7, 8, and 9 assay kits (Promega, Mannheim, Germany) similarly as previously reported.

HEK293 cells = test system: HEK293 cells; design: method as in PMID 29867487, PMID 11734332; settings: lowest of the reported range, ref [34], [36]; cited from earlier work
CCRF-CEM cells [12] = assay: Annexin V/PI staining, apoptosis by flow cytometry; settings: 24 h, 2 × IC50
Procedure: The experimental conditions were similar to those earlier reported (24 h incubation; humidified 5% CO2 atmosphere; 37°C) [13]. The BD Accuri C6 Flow Cytometer was then used to analyze apoptosis using fluorescein isothiocyanate (FITC)-conjugated annexin V/PI assay kit (eBioscience™ Annexin V; Invitrogen, San Diego, USA) similarly as reported earlier [13, 22, 23]; early apoptosis for cells stained with only annexin V; late apoptosis or in a necrotic stage for cells stained with both annexin V and propidium iodide [13, 25, 26].

caspase 9 = assay: Caspase-Glo 9 assay; format: cell-based; settings: CCRF-CEM, 6 h, optimal effects at 8.8 μM
Procedure: as §1

caspase 8 = assay: Caspase-Glo 8 assay; format: cell-based; settings: CCRF-CEM, 6 h, optimal effects at 8.8 μM
Procedure: as §1

[13] = test system: CEM/ADR5000 leukemia cells; design: method as in PMID 29867487; settings: CEM/ADR5000 compared to CCRF-CEM; ref [34]; cited from earlier work
CCRF-CEM cells [14] = test system: CCRF-CEM cells; design: method as in PMID 29867487, PMID 11734332; settings: highest of the reported range, ref [34], [36]; cited from earlier work

## CC(C)[C@@H]1NC(=O)[C@H](C)OC(=O)[C@@H](C(C)C)NC(=O)[C@@H](C(C)C)OC(=O)[C@H](C(C)C)NC(=O)[C@H](C)OC(=O)[C@@H](C(C)C)NC(=O)[C@@H](C(C)C)OC(=O)[C@H](C(C)C)NC(=O)[C@H](C)OC(=O)[C@@H](C(C)C)NC(=O)[C@@H](C(C)C)OC1=O [Valinomycin, valinomycin, reference compound]
CCRF-CEM cells [1]; 10 μM
  Q1 intact cells: 54.1%
  Q2 loss of MMP: 45.9%
  Q3 ruptured cell membrane: 0.00%
  Q4 ruptured cell membrane: 0.00%

## O=c1cc(-c2ccc(O)cc2)oc2cc(O)ccc12 [Compound 3, 7-hydroxy-2-(4-hydroxyphenyl)-4H-chromen-4-one]
[2]; HCT-116, 72 h incubation
  IC50: > 100 µM
[3]
  Degree of resistance: 1.06
  IC50: 80 ± 1.61 µM
U87.MGΔEGFR cells
  Degree of resistance: 0.88
  IC50: 53.8 ± 6.1 µM
Normal AML12 hepatocytes
  IC50: > 100 µM
[4]
  IC50: 48.6 ± 7.09 µM
[5]
  IC50: 61.3 ± 5.87 µM
[6]; Homo sapiens
  IC50: 124 ± 20.2 µM
[6]
  Degree of resistance: 3.98
CCRF-CEM leukemia cells; Homo sapiens
  IC50: 31.2 ± 0.98 µM
[7]
  IC50: 75.5 ± 5.16 µM
HCT116 p53-/- cells
  IC50: 66.3 ± 5.67 µM
  Degree of resistance: < 0.66
[8]
  IC50: > 10 µM

## C=C(C)[C@@H]1CC[C@]2(C(=O)O)CC[C@]3(C)[C@H](CC[C@@H]4[C@@]5(C)CC[C@H](O)C(C)(C)[C@@H]5CC[C@]43C)[C@@H]12 [Compound 1, betulinic acid]
[2]; HCT-116, 72 h, 72 h incubation
  IC50: 31.5 ± 0.49 µM
CCRF-CEM cells [9]; 1/4 × IC50
  Cell percentage Sub-G0/G1: 15.30%
CCRF-CEM cells [9]; 2 × IC50
  Cell percentage Sub-G0/G1: 48.40%
[3]
  Degree of resistance: 0.64
  IC50: 24.9 ± 1.2 µM
[10]
  Cytotoxicity towards normal cells: low cytotoxicity
CCRF-CEM cells [11]
  ROS production, percentage: 53.30%
Caspases 3/7
  Increase in the activity of caspases 3/7: 3.19 fold
HEK293 cells
  IC50: 15.1 µM
U87.MGΔEGFR cells
  Degree of resistance: 0.56
  IC50: 13.9 ± 1.06 µM
CCRF-CEM cells [12]
  Q9-LR early apoptotic cells annexin (+)/PI (-): 51.0%
  Q9-UL annexin V (-)/PI (+) cells (necrosis): 5.1%
Normal AML12 hepatocytes; IC50 in normal AML12 hepatocytes divided by IC50 in HepG2
  Selectivity index: > 2.13
Normal AML12 hepatocytes
  IC50: > 93.9 µM
[4]
  IC50: 44.2 ± 3.15 µM
Caspase 9
  Increase in the activity of caspase 9: 2.37 fold
Caspase 8
  Increase in the activity of caspase 8: 2.91 fold
[5]
  IC50: 24.9 ± 0.33 µM
[13]
  Sensitivity of resistant cells compared to sensitive congener: hypersensitivity
[6]
  IC50: 7.65 ± 1.46 µM
  Degree of resistance: 0.87
[6]; Homo sapiens, ADR5000, 72 h
  IC50: < 10 µM
CCRF-CEM leukemia cells
  IC50: 8.8 ± 0.35 µM
CCRF-CEM leukemia cells; Homo sapiens, 72 h
  IC50: < 10 µM
CCRF-CEM cells [1]; 1/2 × IC50
  Q1 intact cells: 83.0%
  Q2 loss of MMP: 1.28%
  Q3 ruptured cell membrane: 0.291%
  Q4 ruptured cell membrane: 15.4%
CCRF-CEM cells [1]; 1/4 × IC50
  Q1 intact cells: 88.0%
  Q2 loss of MMP: 1.43%
  Q3 ruptured cell membrane: 0.057%
  Q4 ruptured cell membrane: 10.6%
CCRF-CEM cells [1]; 2 × IC50
  Q1 intact cells: 42.5%
  Q2 loss of MMP: 57.5%
  Q3 ruptured cell membrane: 0.00%
  Q4 ruptured cell membrane: 0.00%
CCRF-CEM cells [1]; IC50
  Q1 intact cells: 51.8%
  Q2 loss of MMP: 48.2%
  Q3 ruptured cell membrane: 0.00%
  Q4 ruptured cell membrane: 0.00%
[7]
  IC50: 38.8 ± 0.94 µM
HCT116 p53-/- cells
  IC50: 17.1 ± 0.7 µM
  Degree of resistance: 0.54
CCRF-CEM cells [14]
  IC50: 29.4 µM
[8]; 72 h
  IC50: < 50 µM
[8]; all resistant cell lines compared to their sensitive counterparts
  Degree of resistance (D.R.), all resistant cell lines: below 1
